According to patent US7618989B2, “Tricyclic oxazolidone derivatives useful as PR modulators” (Wyeth, priority 2006, dated 2009):

Tested on: alkaline phosphatase activity in T47D cells
Experiment: Effects of progestins and antiprogestins on alkaline phosphatase activity in T47D cells
Format: cell-based
Details: Homo sapiens, antagonist mode, in the presence of 1 nM progesterone, 24 h incubation, read-out: T47D Alkaline Phosphatase Activity IC50 (nM) or % inhibition
Protocol: (1) Effects of Progestins and Antiprogestins on Alkaline Phosphatase Activity in T47D Cells.
• PURPOSE: To identify progestins or antiprogestins by determining a compound's effect on alkaline phosphatase activity in T47D cells. A. Reagents:
Culture medium: • DMEM:F12 (1:1) (GIBCO, BRL) supplemented with 5% (v/v) charcoal stripped fetal bovine serum (not heat-inactivated), 100 U/mL penicillin, 100 μg/mL streptomycin, and 2 mM the GlutaMax™ reagent (GIBCO, BRL).
Alkaline phosphatase assay buffer: • I. 0.1M Tris-HCl, pH 9.8, containing 0.2% the Triton® X-100 reagent • II. 0.1M Tris-HCl, pH 9.8, containing 4 mM p-nitrophenyl phosphate (Sigma). B. Cell Culture and Treatment:
Frozen T47D cells were thawed in a 37° C. water bath and diluted to 280,000 cells/mL in culture medium. To each well in a 96-well plate (Falcon, Becton Dickinson Labware), 180 μL of diluted cell suspension was added.
Twenty μL of reference or test compounds diluted in the culture medium was then added to each well. When testing for progestin antagonist activity, reference antiprogestins or test compounds were added in the presence of 1 nM progesterone. The cells were incubated at 37° C. in a 5% CO2/humidified atmosphere for 24 h.
NOTE: For high throughput screening, one concentration of each compound was tested at 0.3 μg/mL. Based on an average molecular weight of 300 g/mol for the compounds in the library, the concentration was approximately 1 μM. Subsequently, active compounds were tested in dose response assays to determine EC50 and IC50. C. Alkaline Phosphatase Enzyme Assay:
At the end of treatment, the medium was removed from the plate. Fifty μL of assay buffer I was added to each well. […]
For reference and test compounds, a dose response curve was generated for dose (X-axis) vs. the rate of enzyme reaction (slope) (Y-axis). […] EC50 or IC50 values were calculated from the retransformed values. […]
Progesterone and trimegestone were reference progestins and RU486 was the reference antiprogestin. All reference compounds were run in full dose response curves and the EC50 and IC50 values were calculated.

| IC50 | Structure (SMILES) |
| --- | --- |
| 5 nM | CCC1(CC)COC(=O)N1c1nc2c(s1)CCc1cc(C#N)ccc1-2 [Example 5, 2-(4,4-Diethyl-2-oxo-1,3-oxazolidin-3-yl)-4,5-dihydronaphtho[1,2-d][1,3]thiazole-7-carbonitrile] |
| 27.9 nM | CC1(C)COC(=O)N1c1nc2c(s1)CCc1cc(C#N)ccc1-2 [Example 6, 2-(4,4-Dimethyl-2-oxo-1,3-oxazolidin-3-yl)-4,5-dihydronaphtho[1,2-d][1,3]thiazole-7-carbonitrile] |
| 100 nM | CC1(C)COC(=O)N1c1nc2c(ccc3cc(C#N)ccc32)s1 [Example 7, 2-(4,4-Dimethyl-2-oxo-1,3-oxazolidin-3-yl)naphtho[1,2-d][1,3]thiazole-7carbonitrile] |

Tested on: not given
Experiment: not given
Details: not given

| melting point | Structure (SMILES) |
| --- | --- |
| 197 to 199 °C | C[C@@H]1COC(=O)N1c1nc(-c2ccc(Br)cc2)cs1 [Example 1, (4R)-3-[4-(4-Bromophenyl)-1,3-thiazol-2-yl]-4-methyl-1,3-oxazolidin-2-one] |
| 145 to 147 °C | CCC1(CC)COC(=O)N1c1nc(-c2ccc(C#N)cc2)cs1 [Example 2, 4-[2-(4,4-Diethyl-2-oxo-1,3-oxazolidin-3-yl)-1,3-thiazol-4-yl]benzonitrile] |
| 181 to 183 °C | CC1(C)COC(=O)N1c1nc(-c2cccc(C#N)c2)cs1 [Example 3, 3-[2-(4,4-dimethyl-2-oxo-1,3-oxazolidin-3-yl)-1,3-thiazol-4-yl]benzonitrile] |
